Measurements from US4192871A, “Chemical compounds” (Glaxo Laboratories Limited, priority 1976, dated 1980).

Key:
[1] = dissolution of the 11β-aminoester salts in aqueous acid (Table 5 and Examples 101, 225-229); type: physicochemical
Description: (§1) A solution of the above free base (492 mg; 1 mmole) in ethanol (10 ml) was treated with a solution (10 ml) of M/10 citric acid in ethanol water (9:1) and the mixture evaporated in vacuo at low temperature to afford a froth.
(§2) Table 5 summarises the properties and preparation of salts of the invention by one of the following methods:
(§3) A. The 11β-aminoester (1 part) was added to a solution of the acid (1 molar part) in water and the mixture stirred or shaken until a clear solution was obtained. The solution was made up with water to the weight indicated, filtered through a membrane and the pH determined.
(§4) B. The 11β-aminoester (1 part) was added to a solution of the acid (1 molar part) in water and the mixture stirred or shaken. As free base remained undissolved, further acid was added and the mixture agitated again. The solution was made up with water to the weight indicated and any material which then remained undissolved was collected in a weighed funnel and the weight of free base dissolved calculated and the pH of the solution measured.
(§5) C. A mixture of the 11β-aminoester (1 part), a 0.1 M solution of the acid (1 molar part) and ethanol was evaporated in vacuo and dried to constant weight. The residue was dissolved in a little water and any material which then remained undissolved collected in a weighed funnel and the weight of free base dissolved calculated. The solution was made up with water to the weight indicated and its pH measured.
(§6) D. The 11β-aminoester (1 part) was added to a solution of the acid (1 molar part) in water and the mixture stirred or shaken. The solution was made up with water to the weight indicated. The material remaining undissolved was collected in a weighed funnel and the weight of free base dissolved calculated and the pH of the solution measured.
(§7) E. As in method C except that further acid was added to the residue after addition of the small amount of water.
The solid citric acid used was as its monohydrate.
(§8) Sodium iodide (0.250 g) and diethylamine (0.5 ml) were added to a solution of 11β-chloroacetoxy-2β-ethoxy-3α-hydroxy-D-homo-5α-pregnan-20-one (0.250 g) in acetone (10 ml) and the mixture was left at room temperature for 3 days during which time a white solid precipated. Water was added and the yellow solution was concentrated in vacuo whereupon crystallisation occurred. The needles were filtered off and washed well with acetone/water yielding the title compound (0.201 g), m.p. 160°-73°, [α]D +60.8°. The above base (0.101 g) was stirred with citric acid monohydrate (0.042 g) in water (9.5 ml) for 21 hours. The solution was made up to 10.1 g by weight. The solid remaining out of solution was filtered off, dried and weighed. The solution was passed through a millipore filter giving an aqueous solution of the title compound, concentration 9.75 mg/ml, pH 3.66.
The above base (0.096 g) was stirred in a solution of citric acid monohydrate (0.038 g) in water (8.5 ml) for 20 hours. A large proportion of the steroid remained out of solution. More citric acid (0.038 g) was added and the mixture stirred for a further 6 hours. The solution was made up to 9.6 g by weight and the solid remaining out of solution was filtered off, dried and weighed. The solution was passed through a millipore filter giving an aqueous solution of the title compound, concentration 9.5 mg/ml, pH 2.85.
To a solution of citric acid monohydrate (52.5 mg) in water (2 ml) was added the above free base (115 mg). More water (8 ml) was added and the mixture was stirred for 72 hrs. A small amount of steroid remained out of solution and more citric acid (52.5 mg) was added. Within 5 mins. a clear solution was obtained which was made up to 11.5 g with water and filtered through a millipore filter yielding an aqueous solution of the title citrate, concentration 10 mg/ml, pH 3.0.
The above free base (112 mg) was added to a solution of citric acid monohydrate (52.5 mg) in water (2 ml). More water (8 ml) was added and the mixture was swirled from time to time. […]

pH of the salt solutions = type: physicochemical
Description: as §1, §2, §3, §4, §5, §6, §7
11β-N,N-Diethylaminoacetoxy-2β-ethoxy-3α-hydroxy-5α-pregnan-20-one (1.45 g) was agitated with citric acid monohydrate (621 mg) in 0.9% w/v sodium chloride solution (steriflex^(R)) (130 ml.) at 20° for 16.5 hours. The resulting solution was stirred at 21° and N/5 sodium hydroxide solution in steriflex^(R) (10.5 ml) was added dropwise during 30 minutes, raising the pH from 3.63 to 4.52. The solution was diluted to 162.5 g so that the concentration of steroid was 9 mg/ml. The solution of the citrate was filtered through a membrane and finally filtered into 8 sterile ampoules.
11β-(N-Butyl-N-ethylaminoacetoxy)-3α-hydroxy-5α-pregnan-20-one (1.80 g) was agitated with citric acid monohydrate (793 mg) in 0.9% w/v sodium chloride solution (steriflex^(R)) (160 ml) at 20° for 19.5 hours. The resulting solution was slightly cloudy. This solution was stirred at 21° and N/5 sodium hydroxide solution in steriflex^(R) (5.8 ml) was added dropwise during 15 minutes, raising the pH from 3.62 to 4.00. The solution was diluted to 201.2 g so that the concentration of steroid was 9 mg/ml. The cloudiness was removed by filtration through a membrane and the clear solution of the citrate was filtered into 8 sterile ampoules.
as §8, with “3.66. […]” for “3.66.”

[2] = method B: further acid added, undissolved material weighed, WT. of solution 10 g, except Ex. 130 and 141: 9.2, 142: 9.23, 143, 144, 189 and 199: 9.8, 149: 10.6, 153: 7.9, 162 and 188: 9.5, 163: 68, 166: 10.4, 168: 10.7, 169: 10.9, 183: 8.05, 184 and 201: 9.83, 185: 7.1, 186: 9.3, 192: 10.07, 193: 6.4, 195: 6.8, 196: 7, 197: 7.2, 200: 10.1, 206: 15 g
[3] = aqueous solution of the salt, Table 5
[4] = method A: clear solution, 1 molar part acid, made up with water to WT. of solution 10 g, except Ex. 121 and 150: 12, 123: 12.3, 124: 7.5, 129: 10.3, 135 and 139: 8.95, 164: 10.35, 170: 10.4, 181: 10.04, 187: 9.5, 210: 10.2, 221: 15 g
[5] = method C: ethanol evaporated, residue in water, undissolved material weighed, WT. of solution Ex. 118: 10, 120: 10.4, 148: 9.54, 152: 5.6, 154: 9.1, 155: 8.77, 156: 9.06, 157: 9.5, 158: 9.38, 159: 9.17, 179: 9.65, 180: 11.7, 182: 4.9, 202: 12.05, 213: 12, 214: 11.5, 215: 11.1, 216: 11.6, 217: 12.1 g
[6] = method D: 1 molar part acid, undissolved material weighed, WT. of solution 10 g, except Ex. 136: 8.95, 140: 9.52, 165 and 167: 10.1, 190 and 198: 9.8, 191: 8.9, 194: 6.6, 204: 10.09, 219: 10.6 g
[7] = method E: as C with further acid, WT. of solution Ex. 160: 6.12, 161: 7.8, 203: 12.7, 212: 12.125, 220: 10 g

| Compound | pH (pH of the salt solutions; [3]) | Dissolved aminoester [1, 4] [mg] | also measured |
| --- | --- | --- | --- |
| CCCO[C@H]1C[C@@]2(C)[C@@H](CC[C@@H]3[C@@H]2[C@@H](OC(=O)CN2CCC(C)CC2)C[C@]2(C)[C@@H](C(C)=O)CC[C@@H]32)C[C@@H]1O [Example 149] | 2.9 | – | Dissolved aminoester [1, 2]: 106 mg |
| CC(=O)[C@H]1CC[C@H]2[C@@H]3CC[C@H]4C[C@H](O)CC[C@]4(C)[C@H]3[C@@H](OC(=O)CNC3CCCCC3)C[C@]12C [Example 138] | 3.10 | 100 | – |
| CCCCN(C)CC(=O)O[C@H]1C[C@]2(C)[C@@H](C(C)=O)CC[C@H]2[C@@H]2CC[C@H]3C[C@H](O)[C@@H](Br)C[C@]3(C)[C@H]21 [Example 207] | 2.6 | – | Dissolved aminoester [1, 2]: 59 mg |
| CCCN(CCC)CC(=O)O[C@H]1C[C@]2(C)[C@@H](C(C)=O)CC[C@H]2[C@@H]2CC[C@H]3C[C@H](O)CC[C@]3(C)[C@H]21 [Example 215] | 3.63 | – | Dissolved aminoester [1, 5]: 111 mg |
| CCCN(C)CC(=O)O[C@H]1C[C@]2(C)[C@@H](C(C)=O)CC[C@H]2[C@@H]2CC[C@H]3C[C@H](O)CC[C@]3(C)[C@H]21 [Example 117] | 3.4 | 100 | – |
| CC(=O)[C@H]1CC[C@H]2[C@@H]3CC[C@H]4C[C@H](O)CC[C@]4(C)[C@H]3[C@@H](OC(=O)CN(C)[C@@H](C)CC(C)C)C[C@]12C [Example 199] | 3.12 | – | Dissolved aminoester [1, 2]: 88 mg |
| CCC(C)CNCC(=O)O[C@H]1C[C@]2(C)[C@@H](C(C)=O)CC[C@H]2[C@@H]2CC[C@H]3C[C@H](O)CC[C@]3(C)[C@H]21 (stereo partly drawn) [Example 129] | 3.64 | 92.3 | – |
| CC(=O)[C@H]1CC[C@H]2[C@@H]3CC[C@H]4C[C@](C)(O)CC[C@]4(C)[C@H]3[C@@H](OC(=O)CN3CCC(C)CC3)C[C@]12C [Example 134] | 3.2 | – | Dissolved aminoester [1, 6]: 84 mg |
| CCCN(CCC)CC(=O)O[C@H]1C[C@]2(C)[C@@H](C(=O)COC(C)=O)CC[C@H]2[C@@H]2CC[C@H]3C[C@H](O)CC[C@]3(C)[C@H]21 [Example 209] | 3.2 | – | Dissolved aminoester [1, 6]: 75 mg |
| CC(=O)[C@H]1CC[C@H]2[C@@H]3CC[C@H]4C[C@H](O)CC[C@]4(C)[C@H]3[C@@H](OC(=O)CNC3CCCC3)C[C@]12C [Example 137] | 3.62 | 100 | – |
| CCN(CC)CC(=O)OC1CC2(C)C(C(C)=O)CCC2C2CCC3CC(O)C(C)CC3(C)C12 (stereo not drawn) [Example 176] | 3.7 | 103 | – |
| CC(=O)[C@H]1CC[C@H]2[C@@H]3CC[C@H]4C[C@H](O)CC[C@]4(C)[C@H]3[C@@H](OC(=O)CNCC(C)C)C[C@]12C [Example 135] | 3.27 | 80.5 | – |
| CCCN(CCC)CC(=O)O[C@H]1C[C@]2(C)[C@@H](C(C)=O)CC[C@H]2[C@@H]2CC[C@H]3C[C@H](O)[C@@H](C)C[C@]3(C)[C@H]21 [Example 161] | 2.8 | – | Dissolved aminoester [1, 7]: 78 mg |
| CCO[C@H]1C[C@@]2(C)[C@@H](CC[C@@H]3[C@@H]2[C@@H](OC(=O)CN(CC)CC)C[C@]2(C)[C@@H](C(C)=O)CC[C@@H]32)C[C@@H]1O.O=C(O)CC(O)(CC(=O)O)C(=O)O [Example 101 citrate salt, 11β-N,N-Diethylaminoacetoxy-2β-ethoxy-3α-hydroxy-5α-pregnan-20-one, citrate salt] | – | – | dissolution in saline ([1]; citrate salt froth, in saline): dissolved readily in saline; pH (pH of the salt solutions; solution in 0.9% w/v saline, pH adjusted with sodium hydroxide solution): 4.52; pH (pH of the salt solutions; solution of the salt in saline, before any adjustment, citrate salt): 3.5; pH (pH of the salt solutions; solution of the salt in saline, before any adjustment, listed as Example 223, citrate salt): 3.63 |
| C=CCN(C)CC(=O)O[C@H]1C[C@]2(C)[C@@H](C(C)=O)CC[C@H]2[C@@H]2CC[C@H]3C[C@H](O)CC[C@]3(C)[C@H]21 [Example 191] | 3.20 | – | Dissolved aminoester [1, 6]: 86.1 mg |
| CCCCOC1CC2(C)C(CCC3C4CCC(C(C)=O)C4(C)CC(OC(=O)CN4CCC(C)CC4)C32)CC1O (stereo not drawn) [Example 169] | 2.8 | – | Dissolved aminoester [1, 2]: 80.5 mg |
| CC(=O)[C@H]1CC[C@H]2[C@@H]3CC[C@H]4C[C@H](O)CC[C@]4(C)[C@H]3[C@@H](OC(=O)CN3CCCCC3C)C[C@]12C (stereo partly drawn) [Example 148] | 3.55 | – | Dissolved aminoester [1, 5]: 95.4 mg |
| CC(=O)[C@H]1CC[C@H]2[C@@H]3CC[C@H]4C[C@H](O)CC[C@]4(C)[C@H]3[C@@H](OC(=O)CN(C)[C@H](C)CC(C)C)C[C@]12C [Example 198] | 3.62 | – | Dissolved aminoester [1, 6]: 90 mg |
| CC(=O)[C@H]1CC[C@H]2[C@@H]3CC[C@H]4C[C@H](O)[C@@H](Cl)C[C@]4(C)[C@H]3[C@@H](OC(=O)CN3CCC(C)CC3)C[C@]12C [Example 203] | 2.85 | – | Dissolved aminoester [1, 7]: 127 mg |
| CC(=O)[C@H]1CC[C@H]2[C@@H]3CC[C@H]4C[C@H](O)CC[C@]4(C)[C@H]3[C@@H](OC(=O)C(C)N3CCCCC3)C[C@]12C (stereo partly drawn) [Example 180] | 3.60 | – | Dissolved aminoester [1, 5]: 117 mg |
